# Measured values published in patent publication US10300107B2, “Compositions and methods for CaMKII inhibitors and uses thereof” (THE REGENTS OF THE UNIVERSITY OF COLORADO, priority 2007, dated 2019).
# pIC50: −log10 of the molar value. “Also recorded” adds a separate entry of the source. Where no end group is shown, it is not given here.
# Tests used:
# [1] = test system: CaMKII; type: biochemical
# Procedure: (§1) CaMKII activity assays. Standard CaMKII assays were done for 1 min at 30° C. previously described, with 20 nM CaMKII (subunit, not holoenzyme concentration), 50 mM PIPES pH 7.2, 0.1 mg/ml BSA, 10 mM MgCl2, 100 μM [γ-^32P] ATP (˜1 Ci/mmol), 1 mM CaCl2, 1-2 μM CaM, and 30-60 μM AC2 peptide (or syntide2). The reactions were spotted onto Whatman P81 phosphocellulose paper rectangles (˜2×2.5 cm). To remove free radioactivity, the paper rectangles were rinsed and washed for 30 min under agitation in 0.5% phosphoric acid or water. […] Radioactivity of the bound peptides was quantified in a Beckman 6000TA scintillation counter by the Cherenkov method. Any changes of the standard protocol were done as indicated. For assays of the GFP-CaMKIIα mutants, kinase amounts were normalized by GFP fluorescence in the extract, and total protein was adjusted with Cos-7 extracts.
# [2] = test system: CaMKII; assay: Kinase panel (kinase profiling service): CaMKII; type: biochemical; conditions: 5 μM peptide
# [3] = test system: other kinases of the panel (CaMKIV, PKA, PKCα, JNK1α1, MAPK1, raf); type: biochemical; conditions: 5 μM peptide
# Procedure: Kinase panels. A panel of different kinases was tested utilizing a kinase profiling service (Upstate Biotechnology). 40 min reactions at room temperature contained 0.1% BSA and were started by addition of 10 mM MgAcetate and [γ-^33P-ATP], stopped by 0.1% phosphoryic acid, spotted on filter mats, and washed 3×5 min in 75 mM phosphoric acid and 1× in methanol prior to drying and scintillation counting. CaMKII and IV were activated by 5 mM CaCl2 and 1.7 μM CaM in 40 mM Hepes pH 7.4; substrate was 30 μM […] (SEQ ID NO:22). Buffers and substrates for the other kinases are stated in brackets: PKA (8 mM MOPS pH 7, 0.2 mM EDTA; 30 μM Kemptide), PKCα (20 mM Hepes pH 7.2, 0.3% Triton X-100, 0.1 mg/ml phosphatidylserine, 10 μg/ml diacylglycerol; 0.1 mg/ml histone H1), JNK1α1 (50 mM Tris pH 7.5, 0.1 mM EGTA, 0.1% β-mercapto-ethanol; 3 μM ATF), MAPK1 and raf (25 mM Tris, pH 7.5, 0.02 mM EGTA; 250 μM proprietary substrate and 0.66 mg/ml myelin basic protein, respectively). Reactions in presence of 5 μM CN21a were done in duplicate, and normalized to four parallel reactions without inhibitor.
# [4] = target: CaMKI (Homo sapiens, UniProt Q14012); assay: CaMKI activity / inhibition; type: biochemical
# Source text: For curve fit, the Hill coefficient was set as 1.
# [5] = target: T1, CaMKII binding to GST-NR2B-c (Homo sapiens, UniProt Q9UQM7); assay: Ca2+/CaM-induced CaMKII binding to immobilized GST-NR2B-c; conditions: Western blot of eluted CaMKII
# T1 construct: made in house; host or cells: CaMKII: baculovirus/Sf9; GST-NR2B-c and CaM: bacteria
# Procedure: CaMKII binding to NR2B-c was assessed as previously described. Briefly, GST-NR2B-c was immobilized on anti-GST coated microtiter plates, then overlaid with 100 nM CaMKII in presence of Ca^2+/CaM and 1 or 5 μM of various CN peptides. After extensive wash, protein was eluted from the plates by boiling in SDS-loading buffer. Eluted CaMKII was detected by Western-blot as described above.
# [6] = target: T2, CaM dissociation from CaMKII (Homo sapiens, UniProt Q9UQM7); assay: TA-CaM dissociation from CaMKII; type: binding; conditions: 5 μM; 150 nM CaMKII, 30 nM TA-CaM
# T2 construct: made in house; host or cells: baculovirus/Sf9 cells (CaMKII)
# Procedure: TA-CaM dissociation was assessed by increased TA-CaM (30 nM) fluorescence after dissociation from CaMKII or its CaM-binding domain (CBD) (150 nM) during a chase with unlabeled CaM (60 μM). Buffer contained 50 mM Hepes pH 7.4, 150 mM KCl, 2 mM MgCl2, 2 mM MgADP, 2 mM CaCl2, and 0.1 mg/ml BSA. Fluorescence was measured in a time scan (1 sec samples) at 365 nm excitation and 415 nm emission wavelength on a spectro-fluorometer (Fluorolog3; Horiba Jobin Yvon) and was corrected for photobleach (FIG. 16).
# [7] = target: T3, CaMKII (Homo sapiens, UniProt Q9UQM7); assay: CaMKII auto- and protein-phosphorylation (MAP2, T286, T305; immuno-blot); type: biochemical; conditions: KN93 10 μM; for CaMKII T305 auto-phosphorylation: CN21 5 μM; for CaMKII T286 auto-phosphorylation: CN peptides 1-5 μM
# T3 construct: made in house; host or cells: baculovirus/Sf9 cells
# Procedure: CaMKII auto- and protein-phosphorylation. 10 nM MAP2 (˜140 nM phosphorylation sites) was used instead of substrate peptide, and reaction times were 5 min, unless indicated otherwise. CaMKII concentration was 100 nM subunits (=8.3 nM holoenzymes). Auto- and MAP2-phosphorylation were assessed by Immuno-blot analysis previously derived (Bayer et al., 2002, incorporated herein by reference) with phospho-T286- or -T305-specific antibodies (1:500; PhosphoSolutions) and an anti-phospho-Thr antibody (1:500; Zymed), respectively. Total CaMKIIα was detected with CBα2 antibody (1:2000; GIBCO). Protein were separated on 10% poly-acrylamid SDS Gels, and electro-blotted onto “Protran” 0.2 μm pore nitrocelluse filters (e.g. Schleicher & Schull) or onto PVDF filters (e.g. Perkin Elmer). Alternatively, for quantitative analyses, a vacuum-driven slot-blot manifold (e.g. Schleicher & Schull) was used for transfer onto PVDF membranes. PVDF membranes were air-dried for 15 min, then wetted in Methanol. Blots were blocked in 5% milk in TBS-T (Tris-buffered saline pH 7.6 with 0.1% Tween-20). Antibodies were incubated for 45-60 min at room temperature in 2.5% milk in TBS-T; for the anti-phospho-T305 antibody, 2.5% BSA was used instead. After secondary antibody incubation (anti-mouse or anti-rabbit horseradish peroxidase conjugate; Amersham; 1:4000), detection was done using the “Western Lightning” system (Perkin Elmer) and exposure to “Hyperfilm” (Amersham). For quantitative analysis, chemoluminescence was captured using a ChemiImager 4400 imaging system (Alpha Innotek) instead of film. Only non-saturated images were analyzed, using AlphaEase software.
# [8] = target: T3, CaMKII; assay: CaMKII phosphorylation of crude liver extracts or GST-NR2B-c (autoradiography); type: biochemical; conditions: 5 μM
# Procedure: Crude liver extracts or NR2B-c were phosphorylated with 100 nM autophosphorylated CaMKII, 2 μM CaM and 40 μM [γ-^32P]-ATP (˜2 Ci/mmole). Pre-auto-phosphorylation (of 300 nM CaMKII) was done for 5 min on ice, in presence of 3 mM CaCl2, 6 μM CaM and 120 μM unlabelled ATP. After addition of [γ-^32P]-ATP and inhibitors as indicated, 2 min reactions at 30° C. were started by addition of substrate protein extract (⅓^rd to 1/12th of total reaction volume), and stopped with 25 mM EDTA. Phosphorylation was detected by autoradiography after gel electrophoresis.
# [9] = test system: CaMKII T-site mutants W237R and 1205K; assay: Kinase assay with GFP-CaMKIIα T-site mutants; type: biochemical; conditions: substrate syntide2
# Source text: In another example, FIG. 3. […] FIG. 3A represents a model of CaMKII kinase domain (Rosenberg et al., 2005) with the substrate binding S-site (indicated), the T286-region binding T-site (indicated), and the regulatory region (shown as ribbon). The arrow indicates the proposed orientation of CN21a binding to the T-site, when the regulatory region is displaced after activation. […] Results are normalized to maximal kinase activity without inhibitor. Error bars show s.e.m. […] Bound CaMKII was eluted and detected by Western blot.
# as §1
# Sequence of CaMKI (Q14012 whole entry, species assumed): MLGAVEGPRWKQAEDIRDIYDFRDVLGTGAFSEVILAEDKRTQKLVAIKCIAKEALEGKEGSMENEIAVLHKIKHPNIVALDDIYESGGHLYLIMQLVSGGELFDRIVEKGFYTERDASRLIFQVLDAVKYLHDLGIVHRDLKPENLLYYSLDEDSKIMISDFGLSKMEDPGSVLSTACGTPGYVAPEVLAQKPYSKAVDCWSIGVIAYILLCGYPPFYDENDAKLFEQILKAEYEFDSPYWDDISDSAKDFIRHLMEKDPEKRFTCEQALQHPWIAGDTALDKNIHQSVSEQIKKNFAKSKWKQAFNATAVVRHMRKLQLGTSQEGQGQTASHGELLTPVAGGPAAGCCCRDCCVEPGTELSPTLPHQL
sequence,measurement,setting,value
KRPPKLGQIGRSKRVVIEDDR [CN21],inhibition of CaMKII isoforms α and β,[1],"inhibit both major brain CaMKII isoforms, α and β"
same,inhibitory potency on CaMKII activity,"[1]; CN truncation peptides, substrate peptides AC2 or syntide 2, listed as CN21a",contains the full inhibitory potency; also recorded: full inhibitory effect
same,pIC50,"[1]; phosphorylation of syntide 2, read-out: IC50 of CaMKII inhibition",~7.00
same,mechanism of CaMKII inhibition,"[1]; versus substrate AC2, Lineweaver-Burk plot",competitive with AC2
same,CaMKII activity in kinase panel,[2],completely blocked
same,activity of the other kinases of the panel,[3],not affected
same,effect on CaMKI activity,[4],no significant effect
same,CaMKII binding to immobilized GST-NR2B-c / NR2B,[5],efficiently blocked
same,CaM dissociation from CaMKII,[6],slowed down CaM dissociation from CaMKII
same,CaMKII T305 auto-phosphorylation,[7],blocked T305
same,CaMKII T305 auto-phosphorylation,[7]; listed as CN21a,blocks
same,CaMKII T286 auto-phosphorylation,[7],no significant effect
same,CaMKII T286 auto-phosphorylation,[7]; listed as CN21a,not T286 autophosphorylation
same,CaMKII phosphorylation of bacterially expressed GST-NR2B-c,[8],blocks CaMKII phosphorylation
same,CaMKII phosphorylation of crude liver protein extracts,[8],blocks CaMKII phosphorylation
same,activity of CaMKII T-site mutants W237R and 1205K compared to GFP-CaMKIIα wild type,[9],significantly less affected
